Reference: article PMC3098219, “Protective Efficacy of Serially Up-Ranked Subdominant CD8^+ T Cell Epitopes against Virus Challenges” (PLoS Pathogens, 2011)

Columns and labels:
[1] = system: splenocytes of DNA-immunized mice; test: IFN-γ ELISPOT and ICS with modified HIVA immunogens; assay type: cell-based, BALB/c mice; details: for recognition of altered peptides by splenocytes (IFN-γ): Figure 2A and B, mice immunized with dHmP and dHmPG1, respectively
Description: To further investigate this phenomenon, we serially inactivated CD8^+ T cell epitopes in the order of their immunodominance. To maintain the HIVA protein integrity, epitopes P and G1 were mutated rather than deleted by substituting the anchor amino acid residues required for a strong binding to the H-2K^d molecule (Figure 2A). The resulting double and triple mutants of the HIVA immunogen were called dHmP and dHmPG1, respectively. […] Groups of BALB/c mice were immunized 2x using the modified HIVA immunogens vectored by plasmid DNA and the immune responses were measured in IFN-γ ELISPOT, ICS and in vivo killing assays. […] Second, consistently in all three assays, immune responses directed against subdominant epitopes were serially recovered, however, not to the same extent. […] Because the response to the G2 epitope remained undetectable even in the dHmPG1-immunized mice, overlapping 15/11 peptides across the whole HIVA immunogen were used again to search for another yet unidentified epitope of a higher rank. […] (Figure 2D). […] Thus, step-wise deletion of immunodominant CD8^+ T cell epitopes restores responses to the subdominant epitopes in the hierarchy.
Figure 2 Serial up-ranking of epitopes. A) Groups of 4 BALB/c mice were immunized 2x i.m. with 100 µg of DNA at a 2-wk interval. Two wk later, splenocytes were assessed in an ELISPOT assay for production of IFN-γ upon re-stimulation with peptides indicated above. Shown are schematic diagrams of HIVA and the three modified immunogens with representative examples of the ELISPOT well images. B) Mice were immunized as in A and 4 wk later, splenocytes were assessed in an ICS assay to measure CD8^+ T cells secreting IFN-γ upon re-stimulation with peptide indicated in the top left corner. Group means±SD are shown. C) Identical groups of mice were assessed for cytolytic activity in an in vivo lysis of syngeneic peptide-pulsed cells transferred into naïve or vaccinated animals. Representative examples of dot plots are shown (top) and the peptide-specific lyses are expressed as a group mean±SD (bottom). D) Groups of 3 BALB/c mice were immunized 3x with 100 µg of DNA indicated above the dot plot in 2-wk intervals and the designated NPP peptide-specific responses were assessed by IFN-γ ICS 2 wk later. The FACS plots are representative examples with IFN-γ producing cells as a percentage of CD8^+ splenocytes shown in the top right panels. All experiments were repeated at least once. TEXT PRINTED IN THE PICTURE: (D) HIVA: 0.05 | (D) HIVAdH: 0.09 | (D) dHmP: 0.08 | (D) dHmPG1: 0.57 DOUBTS OF THE COPYIST ABOUT THIS PICTURE: Panel D: the numbers in the top right quadrants of the CD8 / IFN-γ dot plots are printed without a measure or unit, so they are copied as bare numbers.
The ELISPOT assay was performed using the Mouse IFN-γ ELISpot kit (Mabtech) according to the manufacturer's instructions. Spots were visualised using sequential applications of a biotin-conjugated secondary anti-IFN-γ mAb (R4-6A2, Rat IgG1), an alkaline phosphatase and a chromogenic substrate (Bio-Rad) and counted using the AID ELISpot Reader System (Autoimmun Diagnostika).

H-2K^d [2] = biological target: T1, H-2K^d (Mus musculus, UniProt P01902); test: T2 peptide binding assay, H-2K^d; details: Figure S2A, 100 µM to 0.01 µM peptide
Protocol: (§1) TAP2 ([…])-deficient T2 cell lines stably expressing D^d, K^d, and L^d molecules kindly provided by Dr. Ted Hansen (Washington university, U.S.A.) were used to assess the ability of MHCs to bind each peptide. In brief, 1×10^5 cells were incubated with 0/0.1/1.0/10/100 µM peptides in no-serum RPMI (R-0) for 14 h at 37°C, 5% CO2 in a flat-bottomed 96-well plate. 14 h later, cells were transferred to a round-bottomed 96-well plate and washed with PBS before staining the cells with anti-H-2K^d/H-2D^d-PE or anti-H-2L^d-PE (eBioscience) monoclonal antibodies. Cells were then analyzed on a FACS flow cytometer.
(§2) Supplementary file ppat.1002041.s002.pdf: Figure S2 T2 assays for peptide binding affinity for MHC class I. TAPdeficient T2 cell lines stably transformed with H-2Dd, H-2Kd or H-2Ld complexes were kindly provided by Dr Hansen, Washington University. Peptide-loaded MHC complexes were detected by fluorochrome-conjugated mAb (DB Biosciences) and the cells were analyzed using flow cytometer. […]
(§3) Supplementary Figure S2. […] Peptide-loaded MHC complexes were detected by fluorochrome-conjugated mAb (DB Biosciences) and the cells were analyzed using flow cytometer. […]

[3] = system: CD8^+ splenocytes of DNA-immunized mice; test: ICS T cell avidity (peptide titration, CD107a/b and IFN-γ); assay type: cell-based, BALB/c mice; details: for peak IFN-γ^+CD107a/b^+CD8^+ cell frequencies at 10 µM peptide: Figure 3B, individual determinants when dominant: H in group HIVA, P in HIVAdH, G1 in dHmP, NPP in dHmPG1, 3x 100 µg DNA, 5 h
Protocol: (§4) T2 cell lines were incubated with decreasing peptide concentrations ranging from 100 µM to 0.1 µM indicated above the H peptide histogram and the cell surface peptide-loaded MHC complexes were detected by fluorochrome-conjugated mAb (DB Biosciences) and quantified using FACS flow cytometer. B) and C) Groups of 3 BALB/c mice were given 3x immunizations using 100 µg of DNA expressing the index or mutated forms of HIVA at 3 wk intervals and their T cell responses were analyzed 4 wk later. B) Splenocytes were assessed in an ICS assay using peptides indicated above the graphs at concentrations ranging from 10 to 10^−8 µM for 5 h. Cells were gated on IFN-γ-producing CD8^+ T cell populations positive (top) or negative (bottom) for CD107a/b. Note the different y-axis scales on the top and bottom graphs. C) The response kinetics of CD8^+ T cells re-stimulated with 0.1 µM peptides was assessed in an ICS assay in 1-h intervals for a period of 4 h. Data shown are as mean±SD of [CD8^+CD107a/b^+IFN-γ^+ cells at each time point (%)] ÷ [CD8^+CD107a/b^+IFN-γ^+ at 4 h (%)]. One out of two independent experiments is shown.
We also measured avidities of T cell responses recovered through the sequential HIVA epitope up-ranking. First, responsiveness of immune splenocytes following 3 plasmid DNA deliveries was measured in an ICS assay upon re-stimulation with peptide concentrations ranging from 10^−8 to 10 µM for 5 h (Figure 3A).

[4] = system: H-2D^d and H-2L^d molecules; details: ref [31], [33]; cited from earlier work
Description: (§5) Our research interests lie in development of the T cell component of HIV-1 vaccines stimulating protective CD8^+ T cell responses. The first-generation T cell immunogen, designated HIVA (Figure 1A), has served as an extremely useful tool for iterative improving of CD8^+ T cell induction by experimental vaccines in mice, non-human primates and humans [reviewed in [30]]. To increase the power of T cell analysis and study the role of subdominant determinants, H-2^d class I-restricted epitopes contained in the HIVA immunogen were mapped in detail. Thus, the most immunodominant epitope of ...

[5] = system: syngeneic peptide-pulsed cells; test: In vivo lysis assay, epitope hierarchy with boost vector and time; design: species or system BALB/c mice; details: for epitope hierarchy at 100 d: Figure 5, DNA-DNA (pTH.HIVA) regimen, 100 d after last vaccination
[6] = system: H-2D^d, H-2K^d or H-2L^d complexes; test: T2 peptide binding assay, respective MHC class I complexes; details: Figure 3A; TAP-deficient T2 cells, 100 µM to 0.1 µM peptide, 14 h at 37°C, FACS
Protocol: as §4, with “Figure 3 Contributing mechanisms of immunodominance. […] T2” for “T2”
as §1

CD8^+ T cells = test: Immunodominance hierarchy of T cell responses to HIVA-derived epitopes; assay type: cell-based, BALB/c mice; details: 10 d after immunization
[7] = system: CD8^+ splenocytes of immunized mice; assay type: cell-based, BALB/c mice; details: HIVAdH vs HIVA immunization; ex vivo ICS, Figure 1D
H-2K^d [8] = biological target: T1, H-2K^d; details: ref [34]; cited from earlier work
Description: as §5

[9] = system: syngeneic peptide-pulsed cells; test: in vivo killing assay (lysis of syngeneic peptide-pulsed cells); design: species or system BALB/c mice; details: HIVAdH vaccinated relative to HIVA vaccination; Figure 1F
H-2L^d = H-2L^d (Mus musculus, UniProt P01897); test: T2 peptide binding assay, H-2L^d; details: Figure S2B, 100 µM to 0.01 µM peptide
Protocol: as §1, §2, §3

H-2D^d = H-2D^d (Mus musculus, UniProt P01900); test: T2 peptide binding assay, H-2D^d; details: Figure S2B, 100 µM to 0.01 µM peptide
Protocol: as §1, §2, §3

T1 sequence (P01902 whole entry, looked up): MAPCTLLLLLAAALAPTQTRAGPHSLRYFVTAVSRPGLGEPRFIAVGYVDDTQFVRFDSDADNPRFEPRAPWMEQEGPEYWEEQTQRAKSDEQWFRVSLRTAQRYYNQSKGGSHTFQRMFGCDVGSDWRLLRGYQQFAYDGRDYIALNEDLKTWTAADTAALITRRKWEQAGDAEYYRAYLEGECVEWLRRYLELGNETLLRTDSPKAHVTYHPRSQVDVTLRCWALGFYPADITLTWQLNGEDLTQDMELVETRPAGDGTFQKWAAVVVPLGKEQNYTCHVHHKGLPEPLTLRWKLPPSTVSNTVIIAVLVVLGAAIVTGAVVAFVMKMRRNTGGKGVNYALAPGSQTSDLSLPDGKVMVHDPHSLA
Chain of H-2D^d (P01900 whole entry, looked up): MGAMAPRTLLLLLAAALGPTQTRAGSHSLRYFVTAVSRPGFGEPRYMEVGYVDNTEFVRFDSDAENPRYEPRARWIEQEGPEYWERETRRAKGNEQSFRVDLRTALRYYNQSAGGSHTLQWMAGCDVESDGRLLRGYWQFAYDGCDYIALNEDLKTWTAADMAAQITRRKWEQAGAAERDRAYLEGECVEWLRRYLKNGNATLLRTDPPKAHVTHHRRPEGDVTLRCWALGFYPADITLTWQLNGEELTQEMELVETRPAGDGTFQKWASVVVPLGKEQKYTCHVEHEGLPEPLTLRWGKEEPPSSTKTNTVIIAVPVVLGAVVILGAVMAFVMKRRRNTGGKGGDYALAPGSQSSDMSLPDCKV
Chain of H-2L^d (P01897 whole entry, looked up): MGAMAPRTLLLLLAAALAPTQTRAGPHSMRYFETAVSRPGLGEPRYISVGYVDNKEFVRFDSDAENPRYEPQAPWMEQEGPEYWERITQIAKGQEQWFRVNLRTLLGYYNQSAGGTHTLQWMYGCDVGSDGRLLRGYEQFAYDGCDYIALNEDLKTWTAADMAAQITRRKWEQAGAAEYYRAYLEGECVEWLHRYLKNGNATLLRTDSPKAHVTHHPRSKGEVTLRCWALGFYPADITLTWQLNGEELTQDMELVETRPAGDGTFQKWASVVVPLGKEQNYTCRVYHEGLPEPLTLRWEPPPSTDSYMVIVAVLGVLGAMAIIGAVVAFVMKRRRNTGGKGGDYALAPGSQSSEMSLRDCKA

Sequence: AMEFLKDTA [altered G1 peptide]
- recognition of altered peptides by splenocytes (IFN-γ) [1]: unable to recognize
- binding to H-2K^d (H-2K^d [2]): unable to bind

Sequence: NPPIPVGDIYKRWIILGLNK
- T cell response to peptide in epitope search ([1]; dHmPG1-immunized mice, overlapping 15/11 peptides across HIVA): a response was detected

Sequence: RGPGRAFVTI [H]
- IFN-γ response in non-degranulating IFN-γ^+CD107a/b^−CD8^+ cells ([3]; Figure 3B bottom, following HIVA vaccination, low, but significant): 0.65 % of total CD8^+ cells
- peak IFN-γ^+CD107a/b^+CD8^+ cell frequencies at 10 µM peptide [3]: 3.2 % of total CD8^+ splenocytes
- MHC class I restriction (H-2D^d and H-2L^d) [4]: restricted by H-2D^d and H-2L^d molecules
- epitope hierarchy at 100 d [5]: no longer dominated the anti-HIVA response
- epitope hierarchy at 28 d ([5]; double or triple DNA prime-boost regimen, 28 d post vaccination): the strongest at 28 d post vaccination
- peptide binding affinities for respective MHC class I [6]: directly correlated with the immunodominance hierarchy
- hierarchy of T cell responses against HIVA-derived epitopes (CD8^+ T cells): H>P>>G1>NPP>>G2

Sequence: TTSTLQEQI [G2, Gag residues 239–247]
- restoration of G2-specific response ([1]; immunization with dHmPG1 vaccine): failed to restore the G2-specific response
- frequencies of IFN-γ-producing CD8^+ cells [7]: undetectable
- MHC class I restriction (H-2K^d) (H-2K^d [8]): H-2K^d-restricted
- peptide binding affinities for respective MHC class I [6]: directly correlated with the immunodominance hierarchy
- hierarchy of T cell responses against HIVA-derived epitopes (CD8^+ T cells): H>P>>G1>NPP>>G2

Sequence: IFGSSMTKA [altered P peptide]
- recognition of altered peptides by splenocytes (IFN-γ) [1]: unable to recognize
- binding to H-2K^d (H-2K^d [2]): unable to bind

Sequence: IFQSSMTKI [P]
- frequencies of IFN-γ-producing CD8^+ cells [7]: noticeably, though not significantly increased
- peak IFN-γ^+CD107a/b^+CD8^+ cell frequencies at 10 µM peptide [3]: 3.3 % of total CD8^+ splenocytes
- epitope hierarchy at 100 d [5]: replaced by T cells specific for peptide P
- peptide binding affinities for respective MHC class I [6]: directly correlated with the immunodominance hierarchy
- hierarchy of T cell responses against HIVA-derived epitopes (CD8^+ T cells): H>P>>G1>NPP>>G2
- in vivo lysis of peptide-pulsed targets [9]: increased in vivo lysis

Sequence: NPPIPVGDI
- restriction / binding to H-2L^d (H-2L^d): restricted by H-2D^d and H-2L^d
- peak IFN-γ^+CD107a/b^+CD8^+ cell frequencies at 10 µM peptide [3]: 0.8 % of total CD8^+ splenocytes
- restriction / binding to H-2D^d (H-2D^d): restricted by H-2D^d and H-2L^d
- hierarchy of T cell responses against HIVA-derived epitopes (CD8^+ T cells): H>P>>G1>NPP>>G2
